Key:
PD-1 [1] = test: PD-1 expression in resting CD8+ T cells treated with Kyn (flow cytometry); type: cell-based, mouse
Procedure: (1) CD8^+ T cells were treated with Kyn (200 μM) for the time periods. The expression of PD-1 was determined by flow cytometry.

AhR = AhR localisation and expression in CD8+ T cells (confocal microscopy, western blot); type: cell-based, mouse; conditions: 48 h
Procedure: (1) CD8^+ T cells isolated from spleen were stimulated with 200 μM Kyn or Kyn+anti-CD3/CD28 beads for 48 h. CD8^+ T cells were fixed, stained with an anti-AhR antibody and imaged by confocal microscopy. Bar, […]. (2) The experimental steps were the same as those of step (1), except that the cytoplasmic and nuclear protein fractions were seperated prior to the western blot analysis of AhR. The intensity relative to that in the resting/Kyn group was calculated. (3) Western blot analysis of AhR expression in both resting CD8^+ T cells and anti-CD3/CD28 bead-activated CD8^+ T cells treated with PBS or Kyn (200 μM) for 48 h was carried out. AhR ratio of Nuc/Cyt was calculated relative to that in the Kyn (−) group.

PAT4 and SLC7A8 [2] = test: Effect of Kyn on the expression of PAT4 and SLC7A8 in OT-1 CD8+ T cells (fluorescence quantitative PCR); type: cell-based; conditions: activated mouse CD8+ T cells, 200 μM Kyn, 48 h
Procedure: Splenic CD8^+ T cells of OT-1 mice were obtained by magnetic bead sorting, and seeded into a 24-well plate (1 million cells/well) while anti-CD3/CD28 magnetic beads were added to activate T cells. The culture medium was RPMI-1640 added with 10 ng/mL mouse IL-2 and […] β-mercaptoethanol. Cells were grouped and treated with drugs as follows. Control group 1 (PBS): culture medium+PBS; Experimental group 2 (Kyn): culture medium+200 μM Kyn; RNA was collected from cells in each group after 48 h, and the expression of PAT4 and SLC7A8 was determined by fluorescence quantitative PCR.

PD-1 promoter = PD-1 promoter luciferase reporter in HEK293T cells; type: cell-based; conditions: Kyn 48 h
Procedure: (6) HEK293T cells were transiently co-transfected with the luciferase reporter PGL3 coupled to the PD-1 promoter together with an AhR or an empty plasmid for 24 h and then treated with Kyn for another 48 h.

OT-1 CD8^+ T cells = test: IFN-γ expression of OT-1 CD8+ T cells co-cultured with OVA-peptide loaded APCs; type: cell-based, mouse; conditions: OT-1 CD8+ T cells pretreated with Kyn 200 μM 72 h, upon PD-1 blockade
Procedure: (10) Splenic APCs pulsed with OVA257-264 (2 μg/ml) were co-cultured with OT-1 CD8^+ T cells in the presence of IgG or anti-PD-1 neutralizing antibody (10 μg/ml) for 72 h. IFN-γ expression was measured by flow cytometry (left). Or, CD8^+ T cells from OT-1 mice were treated with Kyn (200 μM) for 72 h, then co-cultured with OVA-peptide loaded APCs and treated with or without anti-PD-1 neutralizing antibody for 72 h (right). The data represented mean±SEM.

PD-1 [3] = test: Effect of SAR and BCH on PD-1 expression in human peripheral blood CD8+ T cells (flow cytometry); type: cell-based; conditions: breast cancer patients, 200 μM Kyn, 48 h
Procedure: (§1) Mononuclear cells were isolated and obtained from the peripheral whole blood of breast cancer patients by using Ficoll. CD8^+ T cells were sorted by magnetic beads, and seeded into a U-shaped bottom 96-well plate (100000 cells/well) while anti-CD3/CD28 magnetic beads were added to activate T cells. The culture medium was RPMI-1640 added with 10 ng/mL human IL-2. Cells were grouped and treated with drugs as follows.
Control group 1 (PBS): culture medium+PBS;
Experimental group 2 (Kyn): culture medium+200 μM Kyn;
Experimental group 3 (Kyn+SAR): culture medium+200 μM Kyn+10 mM SAR; Experimental group 4 (Kyn+BCH): culture medium+200 μM Kyn+100 μM BCH;
The expression level of PD-1 in CD8^+ T cells of each group was determined by flow cytometry after 48 h.

PAT4 and SLC7A8 [4] = test: Effect of Kyn on the expression of PAT4 and SLC7A8 in human peripheral blood CD8+ T cells (fluorescence quantitative PCR); type: cell-based; conditions: activated peripheral blood CD8+ T cells of breast cancer patients, 200 μM Kyn, 48 h
Procedure: as §1, with “follows. Control group 1 (PBS): culture medium+PBS; Experimental group 2 (Kyn): culture medium+200 μM Kyn; RNA was collected from cells in each group after 48 h, and the expression of PAT4 and SLC7A8 was determined by fluorescence quantitative PCR.” for “follows.”

CD8^+ T cells = test: Essential amino acids in the cytosol of activated CD8+ T cells (LC-QE-MS); type: cell-based; conditions: 48-hour Kyn treatment
Source text: Regarding the antiport function in many transport systems, the inventors additionally analyzed the influence of SLC7A8 and PAT4 on the transport of other essential amino acids. After 48-hour treatment with or without Kyn, anti-CD3/CD28 bead-activated CD8^+ T cells were used to analyze essential amino acids in the cytosol by LC-QE-MS.

Nc1ccccc1C(=O)CC(N)C(=O)O (centres unmarked) [Kyn, kynurenine]
time point of initial increase of PD-1 (PD-1 [1]; Kyn alone): 48 h | PD-1 expression (PD-1 [1]; Kyn alone 200 μM): enough to upregulate PD-1 | AhR localisation (AhR; activated T cells, 200 μM Kyn): translocation of cytoplasmic AhR to the nucleus | AhR expression (AhR; resting T cells, Kyn 200 μM, further increased in activated T cells): upregulated | expression of PAT4 and SLC7A8 (PAT4 and SLC7A8 [2]): significantly upregulating | increase of the luciferase activity (PD-1 promoter; HEK293T overexpressing AhR): 12 fold | increase of the luciferase activity (PD-1 promoter; HEK293T with intrinsic AhR expression (empty control plasmid)): 4 fold | production of IFN-γ (OT-1 CD8^+ T cells): upregulated | PD-1 expression in peripheral blood CD8+ T cells (PD-1 [3]): significant increased | expression of PAT4 and SLC7A8 (PAT4 and SLC7A8 [4]): significantly upregulating | essential amino acids in the cytosol (CD8^+ T cells): had no effect on most of the essential amino acids except some decrease of the intensity of threonine
